In patent publication US20170003277A1 (priority 2015, published 2017):
Where “and” joins values, the source holds several entries; their conditions need not be identical. Identical values can stand only once. Like-named read-outs stand apart in the source and are kept apart here.

Assays:
[1] = system: THP-1 human monocyte cell line; type: cell-based; settings: for Number of genes significantly modulated by Copaxone relative to mannitol: FDR-adjusted p<0.05
Description: Prior to treatment cells were passed and plated in a 6-well plate at a concentration of 1.0×10^6 cells/mL. Cells were allowed to recover for four hours after passage (prior to treatment). […] Each sample was analyzed in six replicates. Cells were treated for 6, 12, and 24 hours. Following treatment time cells were lysed using a Qiagen® based lysis kit. Prior to RNA isolation samples were randomized in order to avoid batch effect. Total RNA was isolated using Qiagen® RNeasy kit. RNA quality was assessed by determining the absorbance ratio 260/280 nm as well as electrophoresis bioanalyzer with 260/280 ratio of 1.9-2.1 and RIN of above 9 were deemed acceptable. Gene expression was measured using Affymetrix® U133 plus 2.0 format. Sample processing was executed according to established manufacturer protocols. The scheme in (FIG. 2) illustrates the general experimental outline.
RNA from THP-1 cells was extracted and expression profiled across the entire genome using the Affymetrix Human Genome U133 Plus 2.0 chip, interrogating a total of over 47,000 transcripts. Four batches of Copaxone® and one batch of Probioglat were comparatively tested in six biological replicates each. Key identified genes were independently evaluated for level of gene expression by quantitative Real-Time PCR of samples collected in the same experiments.
mRNA expression levels were compared between GA and control (mannitol) tested with 6 sample replicates for each of 4 batches of GA and for mannitol, using LIMMA (Sim et al., Nat. Biotechnol. 2011) (Methods). […] We chose 6h for initial downstream analysis since this timepoint reflects the greatest impact of treatment. […] Rather, this decrease in number of genes affected from early to later timepoints represents an attribute of the response of the cells to the drug.
To identify differences between branded GA and differently manufactured glatiramoids, differential gene expression analysis was performed to compare directly between profiles induced by branded GA and by the purported generic glatiramoid, Probioglat. The standard R LIMMA bioconductor package was utilized to measure differentially expressed probesets across the entire microarray. To compare GA and Probioglat, comparisons were corrected to compare each treatment relative to mannitol control (i.e., [GA vs mannitol] was compared via LIMMA to [Probioglat vs mannitol]). Probesets were filtered by calls of presence on the chip for the relevant samples in the comparison (to be considered present at a given timepoint, a probeset was required to have on average a call of present or marginal across the relevant samples at that timepoint). Probesets were mapped to genes using the annotation available for the U133 Plus 2.0 chip from Affymetrix. FDR adjusted p values reported for genes represent the lowest FDR adjusted p value for present probesets for that gene.

[2] = system: THP-1 human monocyte cell line; test: Pathway enrichment (DAVID) in THP-1 cells, Example 9; type: cell-based; settings: genes upregulated vs mannitol, 6 hours
Description: Nucleic Acids Res. 37, 1-13 (2009)]. Pathway enrichment results were visualized using volcano plots, plotting −log p-values versus enrichment scores. For GA MOA, to obtain top-gene lists of appropriate size (tens-hundreds) for use with DAVID, an absolute-value fold-change cutoff of 1.5 and p-value cutoff of 1e-3 were utilized to obtain gene lists for pathway enrichment. […] DAVID runs were conducted on Sep. […] Please note that the GO databases are updated daily (as noted on the GO site:www.geneontology.org/GO.downloads.ontology.shtml) and therefore performing the same enrichments on the same genesets may yield slightly varying results depending on the rundate. Pathway p-values may change slightly between runs conducted at different times; the overall picture of enriched pathways, however, is expected to remain consistent.
Performing the same enrichments on the same genesets may yield slightly varying results depending on the run date (GO databases are updated daily: www.geneontology.org/GO.downloads.ontology.shtml).

[3] = system: mouse splenocytes, THP-1 human monocyte cell line, PBMCs from MS patients; test: Integrated analysis of genes modulated by Copaxone across mouse splenocytes, THP-1 human monocytes and MS patient PBMCs; settings: human monocytes
Excerpt: Genome-wide expression profiles in cells from three different datasets in two different species (human, mouse) were studied. LIMMA was utilized to identify a genome-wide list of differentially expressed genes induced by GA in the primed and ex vivo stimulated mouse splenocytes, as well as in the THP-1 human monocyte cell line. Repeated-measures ANOVA was utilized to find a genome-wide list of genes modulated by GA in treated MS patients. Advanced enrichment algorithms were then applied to elucidate the pathways and cell types modulated by GA.
The genes modulated by GA treatment in multiple studies were examined for enrichment in particular immunological cell types.

[4] = cited from earlier work
[5] = 6 hr, FDR p < 1e−5, |FC| >= 1.3
[6] = 6 hr, FDR p < 1e−5, |FC| >= 1.5
[7] = 6 hr, nominal p < 0.05, vs mannitol
[8] = 12 hr, FDR p < 1e−5, |FC| >= 1.3
[9] = 12 hr, FDR p < 1e−5, |FC| >= 1.5
[10] = 24 hr, FDR p < 1e−5, |FC| >= 1.3
[11] = 24 hr, FDR p < 1e−5, |FC| >= 1.5

With glatiramer acetate [Copaxone®] the “raw.FC 202434_s_at CYP1B1” value [1] was 2.203, the “raw.FC 202435_s_at CYP1B1” value [1] was 1.96 and the “raw.FC 202436_s_at CYP1B1” value [1] was 2.027. For the same substance, the “raw.FC 202437_s_at CYP1B1” value [1] was 1.809, the “IL1RN fold change (FC), all present probesets” value ([1]; 6h, GA vs mannitol, listed as GA) was 1.43 and 1.35 and 1.26 and the “Number of genes significantly modulated by Copaxone relative to mannitol” value ([1]; 6 hour) was 6,890. For the same substance, the “IL10 fold change (FC)” value ([1]; 6 hour, GA vs mannitol) was 1.52, the “Number of genes Down-regulated by GA” value ([1]; 6 hr, FDR p < 0.05) was 4066 and the “Number of genes Up-regulated by GA” value ([1]; 6 hr, FDR p < 0.05) was 2824. The “Number of genes Down-regulated by GA” value [1, 5] was 508, the “Number of genes Up-regulated by GA” value [1, 5] was 557 and the “Number of genes Down-regulated by GA” value [1, 6] was 119. For the same substance, the “Number of genes Up-regulated by GA” value [1, 6] was 257, the “Number of genes Down-regulated by GA” value [1, 7] was 4909 and the “Number of genes Up-regulated by GA” value [1, 7] was 3511. For the same substance, the “Number of genes significantly modulated by Copaxone relative to mannitol” value ([1]; 12 hours) was 3,118, the “Number of genes Down-regulated by GA” value ([1]; 12 hr, FDR p < 0.05) was 1810 and the “Number of genes Up-regulated by GA” value ([1]; 12 hr, FDR p < 0.05) was 1308. For the same substance, the “Number of genes Down-regulated by GA” value [1, 8] was 50, the “Number of genes Up-regulated by GA” value [1, 8] was 210 and the “Number of genes Down-regulated by GA” value [1, 9] was 10. The “Number of genes Up-regulated by GA” value [1, 9] was 68, the “Number of genes Down-regulated by GA” value ([1]; 12 hr, nominal p < 0.05) was 3430 and the “Number of genes Up-regulated by GA” value ([1]; 12 hr, nominal p < 0.05) was 2377. For the same substance, the “Number of genes significantly modulated by Copaxone relative to mannitol” value ([1]; 24 hours) was 1,791, the “Number of genes Down-regulated by GA” value ([1]; 24 hr, FDR p < 0.05) was 1185 and the “Number of genes Up-regulated by GA” value ([1]; 24 hr, FDR p < 0.05) was 606. For the same substance, the “Number of genes Down-regulated by GA” value [1, 10] was 6, the “Number of genes Up-regulated by GA” value [1, 10] was 57 and the “Number of genes Down-regulated by GA” value [1, 11] was 0. The “Number of genes Up-regulated by GA” value [1, 11] was 15, the “Number of genes Down-regulated by GA” value ([1]; 24 hr, nominal p < 0.05) was 3724 and the “Number of genes Up-regulated by GA” value ([1]; 24 hr, nominal p < 0.05) was 1410. The “CCL2 expression relative to mannitol control” value ([1]; THP-1, 6 hours) was “decreased”, the “CD14 expression versus mannitol control” value ([1]; THP-1, 6 hours) was “not modulated” and the “CD14 201743_at Copaxone Expression Value Range Maximum” value ([1]; THP-1, all Copaxone samples) was 9.69. The “CD14 201743_at Copaxone Expression Value Range Minimum” value ([1]; THP-1, all Copaxone samples) was 9.32, the “CISH 223377_x_at Copaxone Expression Value Range Maximum” value ([1]; THP-1, all Copaxone samples) was 9.11 and the “CISH 223377_x_at Copaxone Expression Value Range Minimum” value ([1]; THP-1, all Copaxone samples) was 8.86. For the same substance, the “CISH 223961_s_at Copaxone Expression Value Range Maximum” value ([1]; THP-1, all Copaxone samples) was 7.69, the “CISH 223961_s_at Copaxone Expression Value Range Minimum” value ([1]; THP-1, all Copaxone samples) was 7.24 and the “ICAM1 202637_s_at Copaxone Expression Value Range Maximum” value ([1]; THP-1, all Copaxone samples) was 8.06. The “ICAM1 202637_s_at Copaxone Expression Value Range Minimum” value ([1]; THP-1, all Copaxone samples) was 7.44, the “ICAM1 202638_s_at Copaxone Expression Value Range Maximum” value ([1]; THP-1, all Copaxone samples) was 7.30 and the “ICAM1 202638_s_at Copaxone Expression Value Range Minimum” value ([1]; THP-1, all Copaxone samples) was 6.51. For the same substance, the “MMP9 203936_s_at Copaxone Expression Value Range Maximum” value ([1]; THP-1, all Copaxone samples) was 9.97, the “MMP9 203936_s_at Copaxone Expression Value Range Minimum” value ([1]; THP-1, all Copaxone samples) was 9.53 and the “Fold Enrichment” value ([2]; GO:0001503~ossification (GOTERM BP_ALL)) was 4.068. The “Fold Enrichment” value ([2]; GO:0007204~elevation of cytosolic calcium ion concentration (GOTERM BP_ALL)) was 4.773, the “Fold Enrichment” value ([2]; GO:0010557~positive regulation of macromolecule biosynthetic process (GOTERM BP_ALL)) was 1.871 and the “Fold Enrichment” value ([2]; GO:0010628~positive regulation of gene expression (GOTERM BP_ALL)) was 1.936. The “Fold Enrichment” value ([2]; GO:0051241~negative regulation of multicellular organismal process (GOTERM BP_ALL)) was 3.649, the “IL-10 gene expression in all 3 systems” value [3] was “Upregulated expression” and the “Number of genes modulated significantly by GA in all three studies” value [3] was 39. The “Adverse events leading to discontinuation” value ([4]; GATE study arm) was 5 and the “Effect on annualized relapse rate (ARR)” value ([4]; GATE study, Copaxone arm (357) vs Placebo (84)) was “no effect in reducing ARR”.
